Results taken from PubChem BioAssay AID248 (DTP/NCI, 2004).
Where “and” joins values, the source holds several entries; their conditions need not be identical. Identical values can stand only once. Inconclusive results and toxic doses are left out. Rule as the data show it: active = T/C of 150% or more; inactive = T/C below 125%.

Test system: L1210 leukemia ip in BDF1 mice, survival T/C
Test: NCI In Vivo Anticancer Drug Screen. Data for tumor model L1210 Leukemia (intraperitoneal) in B6D2F1 (BDF1) mice
Details: endpoint: mean survival time, higher = longer survival
Summary of the method: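 Transplanted-tumor mice were given test agent; controls received vehicle only. Survival readings from the two groups were divided (treated over control).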

[1] = dose: 100.0 mg/kg/injection, schedule: Q01DX009 (ip), vehicle: Klucel (hydroxypropylcellulose) (HPC)
[2] = dose: 100.0 mg/kg/injection, schedule: Q04DX003 (ip), vehicle: Klucel (hydroxypropylcellulose) (HPC)
[3] = dose: 200.0 mg/kg/injection, schedule: Q01DX009 (ip), vehicle: Klucel (hydroxypropylcellulose) (HPC)
[4] = dose: 200.0 mg/kg/injection, schedule: Q04DX003 (ip), vehicle: Klucel (hydroxypropylcellulose) (HPC)
[5] = dose: 400.0 mg/kg/injection, schedule: Q04DX003 (ip), vehicle: Klucel (hydroxypropylcellulose) (HPC)
[6] = dose: 100.0 mg/kg/injection, schedule: Q04DX002 (ip), vehicle: Klucel (hydroxypropylcellulose) (HPC)
[7] = dose: 200.0 mg/kg/injection, schedule: Q04DX002 (ip), vehicle: Klucel (hydroxypropylcellulose) (HPC)
[8] = dose: 400.0 mg/kg/injection, schedule: Q04DX002 (ip), vehicle: Klucel (hydroxypropylcellulose) (HPC)
[9] = dose: 100.0 mg/kg/injection, schedule: Q01DX001 (ip), vehicle: saline
[10] = dose: 200.0 mg/kg/injection, schedule: Q01DX001 (ip), vehicle: saline
[11] = dose: 400.0 mg/kg/injection, schedule: Q01DX001 (ip), vehicle: saline
[12] = dose: 25.0 mg/kg/injection, schedule: Q01DX009 (ip), vehicle: saline with Tween-80
[13] = dose: 50.0 mg/kg/injection, schedule: Q01DX009 (ip), vehicle: saline with Tween-80
[14] = dose: 100.0 mg/kg/injection, schedule: Q01DX009 (ip), vehicle: saline with Tween-80
[15] = dose: 400.0 mg/kg/injection, schedule: Q01DX009 (ip), vehicle: Klucel (hydroxypropylcellulose) (HPC)
[16] = dose: 200.0 mg/kg/injection, schedule: Q01DX009 (ip), vehicle: saline with Tween-80
[17] = dose: 400.0 mg/kg/injection, schedule: Q01DX009 (ip), vehicle: saline with Tween-80
[18] = dose: 100.0 mg/kg/injection, schedule: Q04DX003 (ip), vehicle: saline with Tween-80
[19] = dose: 200.0 mg/kg/injection, schedule: Q04DX003 (ip), vehicle: saline with Tween-80
[20] = dose: 400.0 mg/kg/injection, schedule: Q04DX003 (ip), vehicle: saline with Tween-80
[21] = dose: 50.0 mg/kg/injection, schedule: Q01DX001 (ip), vehicle: saline

Measured: T/C

O=c1oc(-c2ccco2)nc2ccccc12
inactive: [1] 101 % of control | [2] 102 % of control | [3] 110 % of control | [4] 95 % of control | [5] 93 % of control

CCCCCCCCCCCCCCSc1ccc2ccccc2c1
inactive: [2] 92 % of control | [4] 86 % of control | [5] 87 % of control

CC(C)C(CCCC(=O)O)C(=O)O (stereo unspecified)
inactive: dose: 50.0 mg/kg/injection, schedule: Q01DX001 (ip), vehicle: carboxymethylcellulose (CMC) 96 % of control | dose: 100.0 mg/kg/injection, schedule: Q01DX001 (ip), vehicle: carboxymethylcellulose (CMC) 96 % of control | dose: 200.0 mg/kg/injection, schedule: Q01DX001 (ip), vehicle: carboxymethylcellulose (CMC) 96 % of control

O=C(O)Cc1ccc(Cl)c2ccccc12
inactive: [6] 101 % of control | [7] 104 % of control | [8] 107 % of control

COC1=C(NCCc2ccc(OC)c(OC)c2)C(=O)C(OC)=C(NCCc2ccc(OC)c(OC)c2)C1=O
inactive: [9] 109 % of control | [10] 98 % of control | [11] 96 % of control

OC1c2ccccc2-c2ccc(Cl)cc21 (stereo unspecified)
inactive: [12] 97 % of control | [13] 106 % of control | [14] 100 % of control and 90 % of control

CC1CC(C)(C)OC(C(C)C)O1 (stereo unspecified)
inactive: dose: 50.0 mg/kg/injection, schedule: Q01DX009 (ip), vehicle: acetone 100 % of control | dose: 75.0 mg/kg/injection, schedule: Q01DX001 (ip), vehicle: acetone 95 % of control | dose: 100.0 mg/kg/injection, schedule: Q01DX009 (ip), vehicle: acetone 97 % of control | dose: 150.0 mg/kg/injection, schedule: Q01DX001 (ip), vehicle: acetone 92 % of control | dose: 200.0 mg/kg/injection, schedule: Q01DX009 (ip), vehicle: acetone 94 % of control | dose: 300.0 mg/kg/injection, schedule: Q01DX001 (ip), vehicle: acetone 87 % of control

O=S1(=O)CC(N2CCCCC2)C1CN1CCCCC1 (stereo unspecified)
inactive: dose: 75.0 mg/kg/injection, schedule: Q01DX001 (ip), vehicle: saline 97 % of control | dose: 150.0 mg/kg/injection, schedule: Q01DX001 (ip), vehicle: saline 89 % of control

CC(=O)Nc1nc(-c2ccc([N+](=O)[O-])cc2)c(CCC=O)c(=O)[nH]1
inactive: [1] 88 % of control | [2] 90 % of control | [3] 94 % of control | [4] 98 % of control | [15] 102 % of control | [5] 98 % of control

CN(C)CCOC(=O)c1cc(CCBr)cc(CCBr)c1
inactive: dose: 2.5 mg/kg/injection, schedule: Q01DX009 (ip), vehicle: saline 92 % of control | dose: 5.0 mg/kg/injection, schedule: Q01DX009 (ip), vehicle: saline 97 % of control | dose: 10.0 mg/kg/injection, schedule: Q01DX009 (ip), vehicle: Klucel (hydroxypropylcellulose) (HPC) 95 % of control | dose: 10.0 mg/kg/injection, schedule: Q01DX009 (ip), vehicle: saline 94 % of control

O=C(SCCN1CCCC1)C(O)(c1ccccc1)C1CCCC1 (stereo unspecified)
inactive: dose: 75.0 mg/kg/injection, schedule: Q01DX001 (ip), vehicle: carboxymethylcellulose (CMC) 92 % of control | dose: 150.0 mg/kg/injection, schedule: Q01DX001 (ip), vehicle: carboxymethylcellulose (CMC) 96 % of control | dose: 300.0 mg/kg/injection, schedule: Q01DX001 (ip), vehicle: carboxymethylcellulose (CMC) 96 % of control

CCOC(=O)NCc1ccccc1
inactive: [1] 101 % of control | [2] 98 % of control | [3] 106 % of control | [4] 95 % of control | [15] 95 % of control | [5] 101 % of control

ICC12CC=CCC1(CI)CCCC2 (stereo unspecified)
inactive: dose: 150.0 mg/kg/injection, schedule: Q04DX002 (ip), vehicle: Klucel (hydroxypropylcellulose) (HPC) 105 % of control | dose: 300.0 mg/kg/injection, schedule: Q04DX002 (ip), vehicle: Klucel (hydroxypropylcellulose) (HPC) 97 % of control

CCCC(=O)Nc1cc(C)ccc1OC
inactive: dose: 100.0 mg/kg/injection, schedule: Q01DX001 (ip), vehicle: saline with Tween-80 94 % of control | [14] 101 % of control and 90 % of control | dose: 100.0 mg/kg/injection, schedule: Q04DX002 (ip), vehicle: saline with Tween-80 103 % of control and 92 % of control | dose: 200.0 mg/kg/injection, schedule: Q01DX001 (ip), vehicle: saline with Tween-80 98 % of control | [16] 101 % of control and 106 % of control | dose: 200.0 mg/kg/injection, schedule: Q04DX002 (ip), vehicle: saline with Tween-80 97 % of control and 92 % of control | dose: 400.0 mg/kg/injection, schedule: Q01DX001 (ip), vehicle: saline with Tween-80 94 % of control | [17] 97 % of control and 87 % of control | dose: 400.0 mg/kg/injection, schedule: Q04DX002 (ip), vehicle: saline with Tween-80 95 % of control and 98 % of control

C[Si](C)(C)Oc1cccc([Si](C)(C)C)c1
inactive: [14] 97 % of control | [16] 95 % of control | [17] 92 % of control

CN1CCN(C(=O)C2C(c3ccccc3)C2c2ccc(Cl)c(Cl)c2)CC1 (stereo unspecified)
inactive: dose: 12.5 mg/kg/injection, schedule: Q04DX002 (ip), vehicle: saline with Tween-80 95 % of control and 98 % of control | dose: 25.0 mg/kg/injection, schedule: Q04DX002 (ip), vehicle: saline with Tween-80 103 % of control | dose: 50.0 mg/kg/injection, schedule: Q04DX002 (ip), vehicle: saline with Tween-80 92 % of control and 88 % of control

COc1cc(O)c(C(C)=O)c(OC)c1
inactive: [14] 98 % of control | [18] 101 % of control | [16] 96 % of control | [19] 95 % of control | [17] 90 % of control | [20] 93 % of control

COC(=O)C1=COC(C)C2CN3CCc4c([nH]c5ccccc45)C3CC12 (stereo unspecified)
inactive: dose: 25.0 mg/kg/injection, schedule: Q04DX003 (ip), vehicle: Klucel (hydroxypropylcellulose) (HPC) 96 % of control | dose: 50.0 mg/kg/injection, schedule: Q04DX003 (ip), vehicle: Klucel (hydroxypropylcellulose) (HPC) 98 % of control | [6] 98 % of control and 95 % of control | [2] 98 % of control | [7] 91 % of control and 102 % of control | [4] 95 % of control | [8] 87 % of control and 106 % of control | [5] 100 % of control

O=C1CCc2cc([N+](=O)[O-])ccc2O1
inactive: [21] 103 % of control | [9] 92 % of control | [10] 94 % of control | [11] 103 % of control

O=C1CCC(=O)N1
inactive: [2] 103 % of control | [4] 102 % of control | [5] 100 % of control

CC(C)=C(Cl)c1c(C)cc(C)c(CC(N)=O)c1C
inactive: [1] 98 % of control | [2] 93 % of control | [3] 105 % of control | [4] 98 % of control | [15] 96 % of control | [5] 98 % of control

C=CCOCCC#N
inactive: [12] 95 % of control | [13] 97 % of control | [14] 100 % of control

c1ccc2cc(N=Nc3ccc4ccccc4c3)ccc2c1
inactive: [1] 98 % of control | [2] 95 % of control | [3] 97 % of control | [4] 92 % of control | [15] 102 % of control | [5] 94 % of control

O=Nc1ccc2ccccc2c1N=Nc1ccccc1C(=O)O
inactive: [1] 101 % of control | [3] 100 % of control | [15] 103 % of control

CC(=O)OC1c2ccccc2-c2ccc([N+](=O)[O-])cc21 (stereo unspecified)
inactive: [18] 93 % of control and 100 % of control | [19] 100 % of control and 102 % of control | [20] 96 % of control and 98 % of control

Cc1cn(C2CC(O)C(CO)O2)c(=O)n(Cc2ccccc2)c1=O (stereo unspecified)
inactive: [21] 108 % of control | [9] 108 % of control | [10] 98 % of control | [11] 108 % of control

c1ccc(C2=NOC(c3ccccc3)C2)cc1 (stereo unspecified)
inactive: dose: 75.0 mg/kg/injection, schedule: Q01DX009 (ip), vehicle: Klucel (hydroxypropylcellulose) (HPC) 105 % of control | dose: 75.0 mg/kg/injection, schedule: Q04DX003 (ip), vehicle: Klucel (hydroxypropylcellulose) (HPC) 95 % of control | dose: 150.0 mg/kg/injection, schedule: Q01DX009 (ip), vehicle: Klucel (hydroxypropylcellulose) (HPC) 105 % of control | dose: 150.0 mg/kg/injection, schedule: Q04DX003 (ip), vehicle: Klucel (hydroxypropylcellulose) (HPC) 100 % of control | dose: 300.0 mg/kg/injection, schedule: Q01DX009 (ip), vehicle: Klucel (hydroxypropylcellulose) (HPC) 100 % of control | dose: 300.0 mg/kg/injection, schedule: Q04DX003 (ip), vehicle: Klucel (hydroxypropylcellulose) (HPC) 95 % of control
